Measurements taken from patent US12612375B2, “Antimicrobial and anticancer agents” (Persevere Therapeutics Inc., priority 2021, dated 2026).

Legend:
Enterococcus faecium = test: Agar diffusion test Enterococcus faecium; format: cell-based; details: 10 mm disk with 10 mg test substance, 37° C., 24 hours
Description: (§1) Different gram-negative and gram-positive bacteria are used for testing the compounds of the present disclosure: Staphylococcus aureus and Escherichia coli (ATCC-LGC Standards GmbH, Wesel, Germany); Enterococcus faecilis, Enterococcus faecilum, Staphylococcus aureus, Clostridium difficile, Acineobacter baumannii, Pseudomonas aeruginosa, Stenotrophomonas maltophilia, Citrobacter freundii, Escherichia coli, Klebsiella pneomoniae, Morganelle morganii, Bactroides fragilis, Helicobacter pylori (fresh clinical isolates). All isolates are cultured with Müller-Hinton-Agar excluding Bacteroides fragilis and Helcobacter pylori. Bacteroides fragilis is cultured with Müller-Hinton-Agar containing 5% Horseblood and 20 mg/l ß-NAD. Helicobacter pylori is cultured with Chocolat PolyViteX-Agar.
(§2) The antibacterial potential of compounds is examined by the Kirby-Bauer disc diffusion test using Müller-Hington agar. A 10 mm diameter disk soaked in 150 μl of distilled water containing 10 mg of the test substance was placed on Müller-Hington agar (bioMeieux, Geneve, Switzerland) holding a pre-lawn of the according test bacteria. The plates are incubated at 37° C. for 24 hours and the zone of inhibition is recorded. Culture media and sterilized distilled water were used as a control. N-acetylcysteine (NAC) is used as an anti-oxidant control.

Escherichia coli = test: Agar diffusion test Escherichia coli; format: cell-based; details: for Inhibition Zone: Escherichia coli (ATCC 8739), gram-negative
Description: as §1, §2

[1] = previously reported; cited from earlier work
[2] = tested on: all tested cancer cell lines (MDA MB 468 highest, MCC 14.2 lowest response); test: BrdU assay for cell proliferation, all tested cancer cell lines (Example 2); format: cell-based, human; details: FIG. 3
Description: Cells are seeded individually to obtain a sub confluent monolayer in a 96 well plate format and are incubated for 24 hours prior to treatment. To examine the dose response regarding their anti-proliferative activity, cells are incubated with increasing concentrations (100, 200, 500, 1000, 1500 and 2000 μmol/l) of all different Oxathiazinane derivates and ddH2O as control for 6 h prior BrdU proliferation assay (5-bromo-2-deoxyuridine)-ELISA (Roche Applied Science, Mannheim, Germany) according to the manufacturer's instructions. […] The amount of synthesized DNA is detected using a microplate absorbance reader measuring at 370 nm with a reference wavelength of 492 nm (ASYS, UVM340, Anthos Mikrosysteme GmbH, Krefeld, Germany). BrdU assays are performed with 8 replicates of three independent experiments with consecutive passages.
(§3) Anti-neoplastic activity of compounds 2289, 2293, and 2296 was determined according to the MTT assay and BrdU assay described above.

[3] = tested on: Staphylococcus aureus (MRSA); test: Agar diffusion test Staphylococcus aureus (MRSA); format: cell-based; details: for Inhibition Zone: Staphylococcus aureus (MRSA Nr. 2065), gram-positive
Description: as §1, §2

[4] = tested on: MDA MB 468, HT29, MCC 14.2, Panc TuI; test: MTT assay for cell viability, all tested cancer cell lines (Example 2); format: cell-based, human; details: FIG. 2
Description: (§4) Cells are seeded individually to obtain a sub confluent monolayer in a 96 well plate format and are incubated for 24 hours prior treatment. To examine a dose response regarding the antineoplastic activity cells are incubated with increasing concentrations (100, 200, 500, 1000, 1500, 2000 μmol/l) of all different Oxathiazinane derivatives and ddH2O as control for 24 and 48 hours. After the exposition time 10 μl MTT (3-(4,5-Dimethylthiazol-2-yl)-2,5-diphenyltetrazoliumbromid) reagent (5 mg/ml) is added and incubated for 2 hours before violet Formazan crystals are dissolved in 100 μl DMSO (Dimethylsulfoxide). Viability of the cells can be analyzed by using a microplate absorbance reader by measuring the OD560 (ASYS, UVM340, Anthos Mikrosystheme GmbH, Germany). The assay is performed using 8 replicates in three independent experiments with consecutive passages.
as §3

Enterococcus faecalis = test: Agar diffusion test Enterococcus faecalis; format: cell-based; details: 10 mm disk with 10 mg test substance, 37° C., 24 hours
Description: as §1, §2

MDA MB 468 cells = test: Cell migration assay (scratch of confluent monolayer); format: cell-based, human; details: 2 to 5 days, compared to untreated control, semi-quantified (FIG. 1)
Description: Cells are plated into the 60-mm dishes to create a confluent monolayer and are incubated for 24 hours allowing cells to adhere and spread. The required number of cells for a confluent monolayer depends on the particular cell type. After creating a scratch of the cell monolayer, the gaparea is examined by phase-contrast-microscopy. Images are captured at the beginning and at regular intervals during cell migration (48, 72, and 120 hours (5 d)) closing the scratch, to semi-quantify the migration rate of the cells.
Cell migration assay: cell migration of compounds 2289, 2244, 2287, 2255, 2256 compared to non-treated control (NK) and positive control (compound 2250). Comparative compounds 2244, 2287, 2255, 2256 have the following structures:
Using cell migration assays, the migration rate of different cancer cell entities under treatment with 2289, negative control and positive control (2250) was semi-quantified.

[5] = Human fresh blood stability / half-life at 37° C. in vitro; format: in vitro ADME; details: for human blood stability profile compared to 2250: K2-EDTA human blood; for half-life compared to the half-life of taurolidine / half-life at 256 μM: human; for half-life at 256 μM: blood
Description: The half-life of each of compounds 2289, 2293, and 2296 in human fresh blood was measured at 37° C. in vitro. For 2289 and 2293 into 2250, K2-EDTA human blood was spiked with 2289 or 2293 at 256 μM; 2250 at 26 μM and 2244 at 26 μM (n=1). The pool remained at 37° C. for 20-25 min and then an aliquot was centrifuged (2500 g for at least 5 minutes at 4° C.). After centrifugation the human plasma was collected and immediately frozen at −80° C. This aliquot corresponded to the T0. The remaining pool was aliquoted and kept at 37° C. An aliquot was collected, centrifuged (2500 g for at least 5 minutes at 4° C.) and the recovered plasma was frozen at −80° C. after at least 0.25, 0.5, 1, 6, 8, 24 and 48 hours. Stability was determined by measuring the 2289 and 2293 peak area at each time point compared to T0. For 2296 into its metabolite 1-hydoxypropane-2-sulfonamide, K2-EDTA human blood was spiked with 2296 at 256 μM and 1-hydroxypropane-2-sulfonamide at 26 μM (n=1). The pool remained at 37° C. for 20-25 min and then an aliquot was centrifuged (2500 g for at least 5 minutes at 4° C.). After centrifugation the human plasma was collected and immediately frozen at −80° C. This aliquot corresponded to the TO. The remaining pool was aliquoted and kept at 37° C. An aliquot was collected, centrifuged (2500 g for at least 5 minutes at 4° C.) and the recovered plasma frozen at −80° C. after at least 0.5, 1, 3, 6, 8 and 24 hours/ Stability was determined by measuring 2296 peak area at each time point compared to T0.

[6] = tested on: Staphylococcus aureus (ATCC 6538); test: Agar diffusion test Staphylococcus aureus (ATCC 6538); format: cell-based; details: gram-positive
Description: as §1, §2

Solubility in water = format: physicochemical; details: at room temperature
Description: Re-crystallization with, e.g., • Ethanol • Ethyl acetate • Ethyl acetate/light petroleum Physical Properties • Melting range: 79-83° C. • Solubility in water: about 1.5% at room temperature • Melting range: 52-53° C. • Solubility in water: <1.5% at room temperature • Melting range: 74-75° C. • Solubility in water: min. 1% at room temperature

AsPc1 cells = test: MTT cytotoxicity assay AsPc1; format: cell-based; details: AsPc1, after 24 h, compared to untreated control (NC), t-test
Description: as §4
A MTT Cytotoxicity assay of the cell line AsPc1 with different oxathiazine derivatives was performed.

[7] = Human fresh blood stability / half-life at 37° C. in vitro; format: in vitro ADME; details: 2296 into 1-hydroxypropane-2-sulfonamide, human blood 37° C., 256 μM, Time 48 h
tumor stem cells = test: Killing tumor stem cells in tissue culture in vitro; format: cell-based
Description: In some embodiments, the taurolidine, taurultam, or a mixture thereof is administered in a tumor stem cell killing composition at a concentration of about 0.01 to about 500 μg/ml. In some embodiments, the taurolidine, taurultam, or a mixture thereof is administered in a tumor stem cell killing composition at a concentration of about 0.1 to about 100 μg/ml. In some embodiments, the taurolidine, taurultam, or a mixture thereof is administered in a tumor stem cell killing effective composition at a concentration of about 10 to about 50 μg/ml. Taurolidine is effective at killing tumor stem cells in tissue culture in vitro at 0.01 μg/ml.

[8] = Escherichia coli, 10 mm disk with 10 mg test substance, 37° C., 24 hours
[9] = Staphylococcus aureus (MRSA), 10 mm disk with 10 mg test substance, 37° C., 24 hours
[10] = 2289 or 2293 spiked at 256 μM into K2-EDTA human blood, 37° C., Time 0 h (T0, after 20-25 min at 37° C.)

| human blood stability profile compared to 2250 ([5]; 37° C.) | half-life compared to the half-life of taurolidine [5] | half-life at 256 μM [5] [h] | Solubility in water (Solubility in water) | Structure (SMILES) | zone of inhibition at 10000 µg/disc (Escherichia coli; [8]) [mm] | zone of inhibition at 10000 µg/disc [3, 9] [mm] | Inhibition Zone (Escherichia coli) [mm] | Inhibition Zone [6] [mm] | other results |
| --- | --- | --- | --- | --- | --- | --- | --- | --- | --- |
| – | – | – | – | NS(=O)(=O)CCO [Compound 2244] | < 10 | – | – | – | zone of inhibition at 10000 µg/disc (Enterococcus faecium): < 10 mm |
| – | – | – | – | O=S1(=O)CCOCN1 [Compound 2250] | – | – | – | – | half-life compared to taurolidine [1]: significantly longer half-life; reduction of proliferating cells (BrdU) [2]: significant reduction of proliferating cells; Zone of inhibition [3, 9]: 49.5 mm; reduction of living cells (cell viability, MTT) [4]: significant reduction of living cells; Zone of inhibition (Escherichia coli; [8]): 24.5 mm; Zone of inhibition (Enterococcus faecalis): 42.5 mm); migration rate (MDA MB 468 cells): clearly inhibited |
| – | – | – | – | CN1COCCS1(=O)=O [Compound 2255] | < 10 | < 10 | – | – | – |
| – | – | – | – | CC1NS(=O)(=O)CCO1 (centres unmarked) [Compound 2256] | < 10 | < 10 | – | – | – |
| – | – | – | – | CC1OCCS(=O)(=O)N1C (centres unmarked) [Compound 2287] | < 10 | < 10 | – | – | – |
| very similar profile | significantly higher | 5 to 6 | about 1.5% | CC(=O)N1COCCS1(=O)=O [Compound 2289] | 18.5 | 27.5 | 18.5 | 27.5 | reduction of proliferating cells (BrdU) [2]: significant reduction of proliferating cells; % Stability [5, 10]: Not stable-; reduction of living cells (cell viability, MTT) [4]: significant reduction of living cells; migration rate (MDA MB 468 cells): lower migration rate |
| very similar profile | significantly higher | 5 to 6 | < 1.5% | CCC(=O)N1COCCS1(=O)=O [Compound 2293] | – | – | 19.5 | 31.5 | Inhibition Zone [3]: 32.5 mm; % Stability [5, 10]: Not stable-; concentration from which a significant impact on cell viability is shown (AsPc1 cells): ≥ 500 µM |
| very similar profile | significantly higher | 5 to 6 | ≥ 1% | CC1COCNS1(=O)=O (centres unmarked) [Compound 2296] | – | – | 23.0 | 38.0 | Inhibition Zone [3]: 43.0 mm; % Stability ([5]; 2296 into 1-hydroxypropane-2-sulfonamide, human blood 37° C., 256 μM, Time 0 h): 100%; % Stability ([5]; 2296 into 1-hydroxypropane-2-sulfonamide, human blood 37° C., 256 μM, Time 0.5 h): 97%; % Stability ([5]; 2296 into 1-hydroxypropane-2-sulfonamide, human blood 37° C., 256 μM, Time 1 h): 92%; % Stability ([5]; 2296 into 1-hydroxypropane-2-sulfonamide, human blood 37° C., 256 μM, Time 3 h): 71%; % Stability ([5]; 2296 into 1-hydroxypropane-2-sulfonamide, human blood 37° C., 256 μM, Time 6 h): 52%; % Stability ([5]; 2296 into 1-hydroxypropane-2-sulfonamide, human blood 37° C., 256 μM, Time 8 h): 42%; % Stability ([5]; 2296 into 1-hydroxypropane-2-sulfonamide, human blood 37° C., 256 μM, Time 24 h): 7%; % Stability [7]: 1% |
| – | – | – | – | O=S1(=O)CCN(CN2CCS(=O)(=O)NC2)CN1 [taurolidine] | – | – | – | – | half-life [1]: about 30 minutes; concentration effective at killing tumor stem cells (tumor stem cells): 0.01 µg/mL |
